Data from paper PMC11345332, “Expression, Purification and Biophysical Characterisation of Klebsiella Pneumoniae Protein Adenylyltransferase: A Systematic Integration of Empirical and Computational Modelling Approaches” (The Protein Journal, 2024).

Tests used:
[1] = biological target: T1, KpPrAT (Klebsiella pneumoniae protein adenylyltransferase) (Klebsiella variicola, UniProt B5XQE2); test: biochemical; set-up: gene ydiU
Source text: isothermal titration calorimetry on KpPrAT (Klebsiella pneumoniae protein adenylyltransferase)

[2] = biological target: T1, KpPrAT (Klebsiella pneumoniae protein adenylyltransferase); test: fluorescence emission blue shift and intensity increase; format: binding; set-up: gene ydiU; synthetic gene in pET-11a (NdeI/BamHI), N-terminal His6 tag kept (no cleavage described), E. coli T7 cells, Ni-IMAC, about 54 kDa; conditions: 10 µM mant-ATP, 2 µM protein, 20 mM sodium phosphate pH 7.4, 20 °C, with or without 5 mM MgCl2; labelled compound

T1 sequence (B5XQE2 whole entry): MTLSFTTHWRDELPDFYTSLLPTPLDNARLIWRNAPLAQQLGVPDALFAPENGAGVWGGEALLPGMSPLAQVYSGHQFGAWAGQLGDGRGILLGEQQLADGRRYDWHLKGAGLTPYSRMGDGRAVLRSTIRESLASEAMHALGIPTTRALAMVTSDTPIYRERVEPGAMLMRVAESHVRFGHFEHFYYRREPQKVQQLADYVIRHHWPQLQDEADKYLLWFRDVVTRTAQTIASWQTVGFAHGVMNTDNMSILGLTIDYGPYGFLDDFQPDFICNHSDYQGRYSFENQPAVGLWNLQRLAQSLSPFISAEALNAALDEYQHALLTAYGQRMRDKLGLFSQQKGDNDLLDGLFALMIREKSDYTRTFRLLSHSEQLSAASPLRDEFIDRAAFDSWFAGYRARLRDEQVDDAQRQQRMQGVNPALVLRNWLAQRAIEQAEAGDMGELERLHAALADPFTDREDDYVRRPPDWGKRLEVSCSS

SMILES	Kd [1] [nM]	fluorescence emission blue shift and intensity increase [2]
Nc1ncnc2c1ncn2[C@@H]1O[C@H](COP(=O)(O)OP(=O)(O)OP(=O)(O)O)[C@@H](O)[C@H]1O [ATP]	2930	–
CNc1ccccc1C(=O)O[C@H]1[C@@H](O)[C@H](n2cnc3c(N)ncnc32)O[C@@H]1COP(=O)(O)OP(=O)(O)OP(=O)(O)O [mant-ATP, 2ʹ/3’-O-(N-Methylanthraniloyl) adenosine 5ʹ-triphosphate]	–	An increase in fluorescence intensity and blue shift occurs when KpPrAT binds to mant-ATP
